Test results published in patent US20240252586A1, “ENGINEERED ANTIMICROBIAL PEPTIDES AND USAGE THEREOF” (priority 2021, published 2024).
Like-named read-outs stand apart in the source and are kept apart here. Where no end group is shown, it is not given here.

Experiments:
[1] = test system: Pseudomonas aeruginosa ATCC 27853; assay: Broth microdilution MIC, QC of stock (Study 2); format: cell-based
Experimental: (§1) The activity of SEQ ID NO: 1 stocks against relevant ATCC reference isolates was determined by broth microdilution for QC purposes in accordance with guidelines described by the Clinical and Laboratory Standards Institute.
(§2) The wells in columns 2-12 in a standard 96-well microdilution plate were filled with 150 μL of 0.002% P-80 PBS. […] Serial two-fold dilutions were conducted through column 11. The wells of column 12 contained no drug and served as the organism growth control well. This would become the “mother” plate from which “daughter” or test plates would be prepared. The daughter plates were loaded with 190 μL of CAMHB+0.002% polysorbate-80 (P-80), or RPMI with 0.002% P-80 by hand-pipetting.
(§3) A standardized inoculum of each evaluated organism was prepared per CLSI methods. Growth from agar plates was used to prepare a 0.5 McFarland suspension in saline for each organism. The 0.5 McFarland suspensions were diluted 1:20 in saline, and the diluted suspensions were used as the test inocula. The inocula were then transferred to daughter plates by delivering 10 μL of standardized inoculum into each well of the daughter plate, resulting in a final concentration ranging between 2.5×10^5 to 5×10^5 CFU/mL per well.
(§4) Plates were stacked and covered with a lid on the top plate, placed into plastic bags, and incubated at 35° C. for 16-20 hr in ambient air. Growth in the microplates was viewed from the bottom using a plate viewer. […] The MIC was read and recorded as the lowest concentration of drug (SEQ ID NO: 1) that inhibited visible growth of the organism.

[2] = test system: Staphylococcus aureus ATCC 29213; assay: Broth microdilution MIC, QC of stock (Study 2); format: cell-based
Experimental: as §1, §2, §3, §4

[3] = test system: Escherichia coli ATCC 25922; assay: Broth microdilution MIC, QC of stock (Study 2); format: cell-based
Experimental: as §1, §2, §3, §4

[4] = test system: A. baumannii; assay: Broth microdilution MIC, PJI isolates (Example 1); format: cell-based, Acinetobacter baumannii; details: RPMI; N = 24
Experimental: (§5) Imipenem, levofloxacin, tigecycline, linezolid, vancomycin, oxacillin, ceftazidime, colistin, and amikacin were tested as comparators. Testing was conducted in accordance with guidelines from the Clinical and Laboratory Standards Institute (CLSI; M7 and M100). Test organisms comprised reference strains from the American Type Culture Collection, the Centers for Disease Control Antibiotic Reference Bank and clinical isolates from the Micromyx repository.

[5] = test system: S. aureus; assay: Broth microdilution MIC, PJI isolates (Example 1); format: cell-based, Staphylococcus aureus; details: RPMI; N = 3
Experimental: as §5

[6] = test system: P. aeruginosa CDC 0515; details: RPMI
Experimental: FIC test ranges were set based on broth microdilution MIC test data. FIC assay plates were prepared in accordance with CLSI guidelines for broth microdilution susceptibility testing; automated liquid handlers, and multi-channel pipettes were used to conduct serial dilutions and liquid transfers.
SEQ ID NO: 1 was tested at two concentration ranges depending on the test media. All organisms tested in CAMHB 0.002% P-80 were tested from 0.015-16 μg/mL; when tested in RPMI 0.002% P-80, the range tested was 0.004-4 μg/mL. For each SEQ ID NO: 1 mother, wells across the standard 96-well microdilution plate were filled with 150 μL of sterile saline 0.002% P-80 in columns 2 through 12. A 300 μL aliquot at 20× the highest final concentration of each dilution range to be tested, was added to each well in column 1 of the plate. The Biomek 3000 was used to make eleven 2-fold serial dilutions horizontally across each row of the plate columns 2 through 11.
The daughter plates were then completed using the Biomek FX to transfer 5 μL of drug solution from each well of the SEQ ID NO: 1 mother plates to the corresponding well in each daughter plate in a single step. […] The preparation of the daughter plates was performed for each media type; two times in total as all organisms were tested in both media types.
A standard inoculum for each organism was prepared per CLSI method. Colonies were picked up from the primary plate and a suspension was prepared equal to 0.5 McFarland turbidity standard. The suspensions were additionally diluted 1:10 in the appropriate broth. A 10 μL standardized inoculum was delivered into each well using the Biomek 3000 from low to high concentration. These inoculations yielded a final cell concentration in the daughter plates of approximately 5×10^5 CFU/mL in each well. […] Exemplary checkboard panels are seen in Table 5 and Table 6. Plates were incubated at 35° C. for 16-20 hr.
The MIC of the horizontal agent (row H) and the MIC of the vertical agent (column 12) were recorded and the wells of the growth-no growth interface for wells containing agents in combination at varying ratios were recorded by row. […] Pinpoint trailing was not interpreted as growth.
For each relevant row of the panel, the FICI was calculated as:
FICdrug A/MICdrug A+FICdrug B/MICdrug=FICI
Mean FICI values were determined for each combination tested by averaging the FICI values as observed on each row of the checkerboard assay (See Table 9, e.g., if there were FICI values for B-G, those FICI values were added together and divided by the number of rows the FICI values which in this case is 6 to get the mean FICI value for that combination).
Using the criteria described by: Odds FC. 2003. Synergy, antagonism, and what the chequerboard puts between them. J Antimicrob Chemother 52(1):1, the mean FICI for the combination was interpreted as follows: ≤0.5=synergy, >0.5-4=additive/indifferent, and >4=antagonism. […] An interpretation of indifference is consistent with growth inhibition at concentrations at or slightly below/above the MICs of the individual agents alone, resulting in a FICI value of >0.5 but […].

[7] = test system: CoNS non-epidermidis; assay: Broth microdilution MIC, PJI isolates (Example 1); format: cell-based, coagulase-negative staphylococci; details: RPMI; N = 53
Experimental: as §5

[8] = test system: Staphylococcus aureus SH1000; details: both concentrations (1 and 5 mg/mL)
Experimental: A bone tunnel in the tibial canal was created using a drill with a 1.2 mm or 1.6 mm tungsten carbide drill bit. The bone tunnel was then dried and treated to stimulate acute human PJI following primary arthroplasty. A Kirschner wire implant of 2 cm long with a 0.3 cm long top hook was placed in the bone tunnel and the wound was closed. Prior to closure of the superficial skin layer, 0.1 mL of 2×10^6 planktonic Staphylococcus aureus SH1000 (CFU/rabbit) in saline was injected into the joint space. A closure was performed, and a biofilm was allowed to become established over a period of 2 days.
At 2 days post infection, irrigation and debridement (I&D) was performed on the infected joint. […] Additionally, an intravenous administration of an antibiotic was administered. Bacterial burden was determined by colony forming unit (CFU) analysis.
Animals were observed up to 28 days. […] When an animal was sick or needed to be euthanized, the implant and a part of the tibia was collected post mortem and bacterial burden was determined by CFU analysis.
The following parameters and endpoints were evaluated in this study: X-ray for proper implant placement, bacterial burden by colony forming unit analysis (CFU), general clinical signs, detailed clinical signs, body weights, body weight changes, temperature, mortality, blood culture, erythrocyte sedimentation rate (ESR), and C-reactive protein levels (CRP). […]

RRWVRRVRRVWRRVVRVVRRWVRR [SEQ ID NO: 1]
MIC ([1]; CAMHB + 0.002% P-80): 4 µg/mL | MIC ([1]; RPMI + 0.002% P-80): 0.5 µg/mL | MIC ([2]; CAMHB + 0.002% P-80): 4 µg/mL | MIC ([2]; RPMI + 0.002% P-80): 0.12 µg/mL | MIC ([3]; CAMHB + 0.002% P-80): 2 µg/mL | MIC ([3]; RPMI + 0.002% P-80): 0.5 µg/mL | MIC50 [4]: 0.25 µg/mL | MIC90 [4]: 0.25 µg/mL | MIC50 [5]: 0.12 µg/mL | MIC90 [5]: 0.12 µg/mL | FICI ([6]; checkerboard row A, with Sodium Bicarbonate at 100): 2.5 | FICI ([6]; checkerboard row B, with Sodium Bicarbonate at 50): 2.25 | FICI ([6]; checkerboard row C, with Sodium Bicarbonate at 25): 1.125 | MIC50 [7]: 0.06 µg/mL | MIC90 [7]: 0.06 µg/mL | body weight vs control group [8]: no statistically significant bodyweight differences
